Assay results as given in US4061757A, “Compounds having juvenile hormone activity” (A/S Cheminova, priority 1971, dated 1977).

Experiments:
[1] = test system: Aedes aegypti L; test: Aedes test (same test as for Culex); format: in vivo; settings: Table I, mature larvae, loss of 50% of test animals, read-out: IC-50 eclos
Method: (§1) The biological tests are examplified by tests on the yellow mealworm, Tenebrio molitor L, Galleria mellonella L, Culex pipiens L, Aedes aegypti L and Drosophila melanogaster L.
Culex test: The compounds are tested on mature larvae. The concentration (IC-50 eclos.) is given in ppm.
Aedes test: The same test as for Culex.

[2] = test system: Culex pipiens L; test: Culex test (mature larvae, loss of 50% of test animals); format: in vivo; settings: Table I, read-out: IC-50 eclos.
Method: The biological tests are examplified by tests on the yellow mealworm, Tenebrio molitor L, Galleria mellonella L, Culex pipiens L, Aedes aegypti L and Drosophila melanogaster L. Culex test: The compounds are tested on mature larvae. The concentration (IC-50 eclos.) is given in ppm.

[3] = test system: Drosophila melanogaster L; test: Drosophila test (compound in agar based food, pupae which fail in ecdysis); format: in vivo; settings: Table I, in artificial agar based food, pupae failing in ecdysis
Method: as §1
Drosophila test: One ml of acetone solution of the compound to be tested is mixed with an artificial agar based food mixture just before this solidifies. Ten less than one day old adult flies -- five of each sex -- are added, and all abnormalities observed for two generations. Juvenile hormone activity is especially noted in the pupae which fail in ecdysis. EC50 -eclos. is given in ppm.

[4] = test system: Tenebrio molitor L; test: Tenebrio test (topical application to pupae, morphological inhibition of adult characters); format: in vivo, Tenebrio molitor L (yellow mealworm); settings: for ID-50 morph.: Table I, topical, acetone solution, 0.5 to 2 hours old pupae (150 mg), 27° C, 70% RH; for ID 50 morph.: Table II, compounds of the formula I, Tenebrio
Method: as §1
Tenebrio test: The material in question is applied topically to the abdomen of 0.5 to 2 hours old pupae of the said species, as a solution in acetone. The pupae are held at 27° C and 70% RH, ecdysis occuring 5 to 7 days later. The degree of inhibition of adult characters is referred to an arbitrary scale, where a morphologically perfect adult is given the character 0%, and a perfect second pupae 100%. In Table 1 is given the morphological inhibition dose 50% (ID 50 morph.) for some of the chemicals invented, in μg per standard pupa (150 mg). ID 50 morph. refers to specimens showing predominantly adult characters in the front part, pupal characters in the abdomen.
ID50 morph is as said above the dose causing development of individuals showing predominantly adult characters in the front part and pupal characters in the abdomen. It is known that ID50 -doses in general are 10 times greater than ED50 -doses.

Row | SMILES | IC50 (inhibition of eclosion) [1] | IC50 for inhibition of adult emergence (eclosion) [2] | EC-50 eclos [3] | ID-50 morph. [4] | ID 50 morph. [4]
1 | CC(C)=CCC/C(C)=C/COc1ccc(C)nc1 [Compound 1, 3,7-dimethyl-1-(6'-methyl-3'-pyridyl-oxy)-2,6-octadiene] | 0.5 µg/mL | 0.5 µg/mL | > 100 ppm | 0.02 μg/pupa | 0,02 μg/150 mg pupa
2 | C/C(=C\COc1ccc(C)nc1)CCC1OC1(C)C (stereo not shown) [Compound 2, 6,7-epoxy-3,7-dimethyl-1-(6'-methyl-3'-pyridyloxy)-2-octene] | 0.1 µg/mL |  |  | 0.002 μg/pupa | 
3 | CCOC(C)(C)CCC/C(C)=C/COc1ccc(C)nc1 [Compound 3, 7-ethoxy-3,7-dimethyl-1-(6'-methyl-3'-pyridyloxy)-2-octene] |  | < 10 µg/mL |  | 0.001 μg/pupa | 
4 | C/C(=C\COc1ccc(C)nc1)CCCC(C)(C)O [Compound 4, 7-hydroxy-3,7-dimethyl-1-(6'-methyl-3'-pyridyloxy)-2-octene] |  |  |  | 4.0 μg/pupa | 
5 | CC(C)=CCC/C(C)=C/CNc1cccnc1 [Compound 5, N,3'-3,7-dimethyl-2,6-octadienyl-1-(3'-a-minopyridine)] |  | 10 µg/mL |  | 40.0 μg/pupa | 
6 | CC(C)=CCCC(C)=CCOc1cccnc1 [Compound 6, 3,7-Dimethyl-1-(3'-pyridyloxy)-2,6-octadiene] |  |  |  | 3.0 μg/pupa | 
7 | CCc1ccc(OCC=C(C)CCC=C(C)C)cn1 [Compound 7, 3,7-Dimethyl-1-(6'-ethyl-3'-pyridyloxy)-2,6-octadiene] |  | 0.05 µg/mL | > 100 ppm | 0.005 μg/pupa | 
8 | CC(C)=CCCC(C)=CCOc1ccc(C(C)C)nc1 [Compound 8, 3,7-Dimethyl-1-(6'-isopropyl-3'-pyridyloxy)-2,6-octadiene] |  |  |  | 0.004 μg/pupa | 
9 | COc1ccc(OCC=C(C)CCC=C(C)C)cn1 [Compound 9, 3,7-Dimethyl-1-(6'-methoxy-3'-pyridyloxy)-2,6-acetadiene] |  |  |  | 0.02 μg/pupa | 0,02 μg/150 mg pupa
10 | CCC(C)=CCCC(=CCOc1ccc(C)nc1)CC [Compound 10, 3-Ethyl-7-methyl-1l-(6'-methyl-3'-pyridyloxy)-2,6-nonadiene] |  |  |  | 0.002 μg/pupa | 
11 | CCC(C)=CCCC(=CCOc1ccc(CC)nc1)CC [Compound 11, 3-EThyl-7-methyl-1-(6'-ethyl-3'-pyridyloxy)-2,6-nonadiene] |  |  |  | 0.001 μg/pupa | 
12 | CC(=CCOc1cccnc1)CCC1OC1(C)C (stereo not shown) [Compound 12, 6,7-Epoxy-3,7-dimethyl-1l-(3'-pyridyloxy)-2-ocetene] |  |  |  | 0.2 μg/pupa | 
13 | CCc1ccc(OCC=C(C)CCC2OC2(C)C)cn1 (stereo not shown) [Compound 13, 6,7-Epoxy-3,7-dimethyl-1l-(6'-ethyl-3'-pyridyloxy)-2l-octene] | 0.1 µg/mL | 0.005 µg/mL | > 100 ppm | 0.0001 μg/pupa | 
14 | CCC(=CCOc1ccc(C)nc1)CCC1OC1(C)CC (stereo not shown) [Compound 14, 6,7-Epoxu-3-ethyl-7-methyl-1-(6'-methyl-3'-pyridyloxy)-2-nonene] |  |  |  | 0.002 μg/pupa | 
15 | CCC(=CCOc1ccc(CC)nc1)CCC1OC1(C)CC (stereo not shown) [Compound 15, 6,7 Epoxy-3-ethyl-7-methyl-1-(6'-ethyl-3'-pyridyloxy)-2l-nonene] |  |  |  | 0.0001 μg/pupa | 
16 | CCOC(C)(C)CCCC(C)=CCOc1cccnc1 [Compound 16, 7-Ethoxy-3,7-dimethyl-1-(3'-pyridyloxy)-2-octene] |  |  |  | 0.009 μg/pupa | 
17 | COc1ccc(NCC=C(C)CCC=C(C)C)cn1 [Compound 17, N, 3'-3,7-Dimethyl-2,6-octadienlyl-(6'methoxy-3'-aminopyridin)] |  |  |  | 0.4 μg/pupa | 
18 | CCC(C)=CCCC(=CCOc1cccnc1)CC [Compound 18, 3-Ethyl-7-methyl-1-(3'-pyridyloxy)-2,6-nonadiene] |  |  |  | 0.2 μg/pupa | 
19 | CCC(=CCOc1cccnc1)CCC1OC1(C)CC (stereo not shown) [Compound 19, 6,7-Epoxy-3-ethyl-7-methyl-1-(3'-pyridyloxy)-2-nonene] |  |  |  | 0.02 μg/pupa | 

Row | SMILES | IC50 (inhibition of eclosion) [1] | IC50 for inhibition of adult emergence (eclosion) [2] | EC-50 eclos [3] | ID-50 morph. [4] | ID 50 morph. [4]
20 | COC(C)(C)CCCC(C)=CCOc1cccnc1 [Compound 20, 7-Methoxy-3,7-dimethyl-1l-(3'-pyridyloxy)-2-ocetene] |  |  |  | 1.0 μg/pupa | 
21 | COC(C)(C)CCCC(C)=CCOc1ccc(C)nc1 [Compound 21, 7-Metoxy-3,7-dimethyl-1-(6'-methyl-3'-pyridyloxy)-2-octene] | 1 µg/mL | < 10 µg/mL |  | 1.0 μg/pupa | 
22 | CCOC(C)(CC)CCCC(=CCOc1cccnc1)CC (stereo not shown) [Compound 22, 7-Ethoxy-3-ethyl-7-methyl-1-(3'-pyridyloxy)-2-nonene] |  |  |  | 0.01 μg/pupa | 
23 | CCOC(C)(CC)CCCC(=CCOc1ccc(C)nc1)CC (stereo not shown) [Compound 23, 7-Ethoxy-3-ethyl-7-methyl-1l-(6'-methyl-3'-pyridyloxy)-2-nonene] |  | 0.5 µg/mL |  | 0.001 μg/pupa | 
24 | CC(C)=CCCC(C)=CCOc1ccc(C)nc1[N+](=O)[O-] [Compound 24, 3,7-Dimethyl-1l-(2'-nitro-6'-methyl-3'-pyridyloxy)-2,6-octadiene] |  | > 10 µg/mL |  | 75. μg/pupa | 
25 | CC(C)=CCCC(C)=CCOc1cccnc1CO [Compound 25, 3,7-Dimethyl-1-(2'-hydroxymethyl-3'-pyridyloxy)-2,6-octadiene] |  |  |  | 10. μg/pupa | 
26 | CC(C)=CCCC(C)=CCOc1cccnc1C [Compound 26, 3,7 Dimethyl-1-(2'-methyl-3'-pyridyloxy)-2,6-octadiene] |  |  |  | 10. μg/pupa | 
27 | CCOC(C)(C)CCCC(C)=CCOc1ccc(CC)nc1 [Compound 27, 7-Ethoxy-3,7-dimethyl-1-(6'-ethyl-3'-pyridyloxy)-2-octene] |  | < 1 µg/mL | > 100 ppm | 0.0001 μg/pupa | 
28 | CCc1ccc(OCC=C(C)CCCC(C)(C)OC)cn1 [Compound 28, 7-Methoxy-3,7-dimethyl-1-(6'-ethyl-3'-pyridyloxy)-2-octene] |  |  |  | 0.001 μg/pupa | 
29 | CCC(C)=CCCC(C)=CCOc1ccc(CC)nc1 [Compound 29, 3,7-Dimethyl-1-(6'-ethyl-3'-pyridyloxy)-2,6-nonadiene] |  |  | > 100 ppm | 0.02 μg/pupa | 
30 | CCc1ccc(OCC=C(C)CCC2OC2(C)CC)cn1 (stereo not shown) [Compound 30, 6,7-Epoxy-3,7-dimethyl-1l-(6'-ethyl-3'-pyridyloxy)-2l-nonene] | 0.5 µg/mL | < 10 µg/mL | > 100 ppm | 0.0003 μg/pupa | 
31 | CC(C)=CCCC(C)=CCOc1ccc(C)nc1CO [Compound 31, 3,7-Dimethyl-1-(2'-hydroxymethyl-6'-methyl-3'pyridyloxy)-2,6-octadiene] |  | > 10 µg/mL |  | 10 μg/pupa | 
32 | CC(C)=CCCC(C)CCOc1cccnc1 (stereo not shown) [Compound 32, 3,7-Dimethyl-1-(3'-pyridyloxy)-6-octene] |  | 0.2 µg/mL |  | 5. μg/pupa | 
33 | CC(C)=CCCC(C)CCOc1ccc(C)nc1 (stereo not shown) [Compound 34, 3,7-dimethyl-1-(6'-methyl-3'-pyridyloxy)-6-octene] |  | 0.5 µg/mL |  | 0.4 μg/pupa | 
34 | Cc1ccc(OCCC(C)CCC2OC2(C)C)cn1 (stereo not shown) [Compound 35, 6,7-epoxy-3,7-dimethyl-1-(6'-methyl-3'pyridyloxy)-octane] |  |  |  | 0.05 μg/pupa | 
35 | CCOC(C)(C)CCCC(C)CCOc1ccc(C)nc1 (stereo not shown) [Compound 36, 7-Ethoxy-3,7-dimethyl-1-(6'-methyl-3'-pyridyloxy)-octane] |  |  | > 100 ppm | 0.05 μg/pupa | 
36 | CCc1ccc(OCCC(C)CCC=C(C)C)cn1 (stereo not shown) [Compound 37, 3,7-dimethyl-1-(6'-ethyl-3'-pyridyloxy)-6-octene] |  |  | > 100 ppm | 0.2 μg/pupa | 
37 | CCc1ccc(OCCC(C)CCC2OC2(C)C)cn1 (stereo not shown) [Compound 38, 6,7-Epoxu-3,7-dimethyl-1l-(6'-ethyl-3'-pyridyloxy)-octane] | < 1 µg/mL | < 10 µg/mL | > 100 ppm | 0.005 μg/pupa | 
38 | CCc1ccc(OCCC(C)CCCC(C)(C)OC)cn1 (stereo not shown) [Compound 40, 7-Methoxy-3,7-dimethyl-1l-(6'-ethyl-3'-pyridyloxy)-octane] |  |  | > 100 ppm | 0.02 μg/pupa | 
